Reference: patent US20030171420A1, “Compounds and compositions for use in ingibting endoparasitic fatty acid biosynthesis” (priority 2000, published 2003)

What was measured:
Plasmodium falciparum = Plasmodium falciparum growth inhibition in human red blood cells (parasite lactate dehydrogenase assay); assay type: cell-based; details: for IC50: Plasmodium falciparum, Erythrocyte, at 48 hours, P. falciparum in human red blood cells, read-out: 50% inhibitory concentration (IC50) for parasite growth
Description: Plasmodium falciparum was maintained in human red blood cells and the inhibitory effects of racemic thiolactomycin, or compound C on its growth was measured, employing assay techniques as described by Makkler, M. T., Ries, J. M., Williams, J. A., Bancroft, J. E., Piper, R. C., Gibbins, B. L. and Hinrichs, D. J., Parasite lactate dehydrogenase as an assay for Plasmodium falciparum drug sensitivity. Am. J. Trop. Med. Hyg. 48, 739-41 (1993).

[1] = system: fatty acid synthesis in Trypanosoma brucei; details: Morita et al., Science 288: 140-143 (2000); read-out: IC50 for inhibition of fatty acid synthesis in Trypanosoma brucei; cited from earlier work
[2] = system: Eimeria tenella parasites; assay: Eimeria tenella invasion of MDBK cells after preincubation of parasites with compound; assay type: cell-based
Description: (§1) Compound C was tested against Eimeria tenella parasites in two separate assay procedures, as described (i) in Inhibition of the development of Eimeria tenella in cultured bovine kidney cells by a soluble factor produced by peripheral blood lymphocytes from immune chickens, J. M. Bumstead, S. J. Topham, F. M. Tomley, Parasitology, 117.39-47 (1998) and (ii) Eimeria tenella: Parasite-specific incorporation of 3H Uracil as a quantitative measure of intracellular development, Schmatz, D. M., Crane, M. S., is Murray, P. K., Journal of Protozology (1986) 33:109-114.
Preincubation of compound C with parasites caused a significant reduction in invasion of Madin-Darby Bovine Kidney (MDBK) cells at concentrations of 10 μM and above.

[3] = system: Eimeria tenella parasites; assay: Eimeria tenella uracil uptake in infected MDBK cells; assay type: cell-based; details: uracil uptake as indicator of parasite viability
Description: as §1
In the second assay using infected MDBK cells, compound C caused a significant decrease in the uptake of uracil by the parasites (a recognised indicator of parasite viability) at concentrations greater than 5 μM.

## C=C/C(C)=C/C1(C)SC(=O)C(C)=C1O (racemic) [Racemic thiolactomycin, Thiolactomycin, reference compound]
Plasmodium falciparum
  IC50: 40 µM
[1]
  IC50: ~150 µM

## CC(C)=CCC/C(C)=C/CC1(C)SC(=O)C(C)=C1O (stereo not drawn) [Compound C]
Plasmodium falciparum
  IC50: 0.5 µM
Plasmodium falciparum; ratio of IC50 values at 48 hours
  times more active than racemic thiolactomycin in inhibiting growth of Plasmodium falciparum: approximately 80 times
[2]
  concentrations causing a significant reduction in invasion of Madin-Darby Bovine Kidney (MDBK) cells: ≥ 10 µM
[3]
  concentrations causing a significant decrease in the uptake of uracil by the parasites: greater than 5 μM
